Like-named read-outs stand apart in the source and are kept apart here.
Legend:
[1] = system: GDNF release from C6 cells; test: GDNF releasing potency assay (dose-response in C6 cells); type: cell-based; settings: 0.1-50 uM, concentration giving 50% of maximal GDNF release
Description: Four compounds were selected for determination of GDNF releasing potency. The EC50 value (Table 3) is defined as the concentration of the compound at which 50% of maximal GDNF release is obtained. The C6 cells were incubated with the selected compounds over a range of concentrations (0.1, 1, 5, 10, 20, 30 and 50 uM for each compound) and the amount of released GDNF at each concentration was via examing the dose-dependent release. A dose-response curve was constructed and the EC50 value was obtained by fitting this curve using GraphPad Prism software.

[2] = system: GDNF release from C6 glioma cells; test: GDNF in-situ ELISA in C6 glioma cells; type: cell-based; settings: 10 μM compound, 48-hour incubation, fold over control release, corrected for pre-treatment release; for fold induction at 10 µM: C6 glioma, 48 h, read-out: Fold-Increase of GDNF Concentration
Description: The GDNF Emax Immunoassay System from Promega (Madison, Wis.) was used to determine small molecule induced GDNF release from C6 glioma cells (ATCC, Manassas, Va.) with the following protocol. A 96-well ELISA plate was sterilized with UV for 30 minutes. The plate was coated with 100 μl/well of the anti-GDNF monoclonal antibody solution in carbonate coating buffer prepared per the manufacturer's instructions, and incubated overnight at 4° C. The antibody coating buffer was removed from the plate, which was then blocked according to the instructions in the kit. The plate was then incubated with 200 μl/well complete growth medium ([…], 5% FBS, 1% penicillin/streptomycin) for 2×1 h at rt to remove residue of the blocking buffer. After these washes were complete, fresh culture media was added to the wells. C6 cells were seeded at a density of 11,000 cells/well, with a total volume of approximately 150 μl in each well. The plate was incubated at 37° C. in an atmosphere containing 5% CO2. After 24 hours, complete growth medium was replaced with low serum medium (98.5% DMEM, 0.5% FBS, 1% penicillin/streptomycin) and the plate was incubated overnight for cellular synchronization. On the following day, cells were treated with experimental compounds for the indicated time. We used 10 μM concentrations of the tested compounds during a 48-hour incubation. Simultaneously with initiation of treatment, cells were removed from pre-treatment control wells with 5×200 μL washes of TBST (to control for basal GDNF release before the treatment period), and low-serum medium was added to these wells. 6 hours prior to stopping treatment with experimental compounds, the GDNF standard was added to the plate per the manufacturer's instructions. To terminate the treatment, the plate was washed extensively with 200 μl/well TBST washing buffer 5 times, which removed the cells. GDNF release for each well was measured according to GDNF Emax Immunoassay system instructions, and a plate reader was used to measure absorbance at 450 nm. Total GDNF release is calculated from the standard curve using Microsoft Excel. The listed values in Table 1 are presented as fold-increase of release of GDNF over control release of GDNF, corrected for pre-treatment release by subtracting from all values the mean amount of GDNF released in pre-treatment control wells. Statistical significance was determined using the Student's t-test.

alcohol intake [3] = settings: mice; effect dependent on induction of GDNF in the VTA; cited from earlier work
alcohol intake [4] = settings: rats; effect dependent on induction of GDNF in the VTA; cited from earlier work
[5] = Rattus norvegicus, C6, C6 cells

**Q.** For `CCC1CC2C=CC1N(CCc1c[nH]c3ccccc13)C2` (racemic) [Compound 10a, exo-2-[2-(1H-indol-3-yl)ethyl]-7-ethyl-2-azabicyclo[2.2.2]oct-5-ene], which EC50 [1, 5] is on record?
**A.** 10.2 ± 0.3 µM

**Q.** What about the “Fold-Increase of GDNF Concentration” value [2] of the same compound?
**A.** 3.2 ± 0.2 fold

**Q.** With `CCC1CC2C=CC1N(CCc1c[nH]c3ccccc13)C2` (racemic) [Compound 12a, endo-2-[2-(1H-indol-3-yl)ethyl]-7-ethyl-2-azabicyclo[2.2.2]oct-5-ene] as the compound, how does the EC50 ([1]; C6 cells) read?
**A.** 18.2 ± 0.2 µM

**Q.** What about the fold induction at 10 µM [2] of the same compound?
**A.** 2 ± 0.1

**Q.** For `CCC1CC2C=CC1N(CCc1c[nH]c3ccc(C(F)(F)F)cc13)C2` (racemic) [Compound 12f, endo-7-ethyl-2-[2-(5-trifluoromethyl-1H-indol-3-yl)ethyl]-2-azabicyclo[2.2.2]oct-5-ene], which fold induction at 10 µM [2] is on record?
**A.** 2

**Q.** What does the source list for `CCC1CC2C=CC1N(CCc1coc3ccccc13)C2` (racemic) [Compound 12g, endo-2-[2-(benzofuran-3-yl)ethyl]-7-ethyl-2-azabicyclo [2.2.2]oct-5-ene]?
**A.** EC50 ([1]; C6 cells): 3.6 ± 0.1 µM; EC50 [1, 5]: 3.3 µM; fold induction at 10 µM [2]: 2.9 ± 0.1

**Q.** With `CCC1CC2C=CC1N(CCc1c[nH]c3ccc(F)cc13)C2` (racemic) [Compound 12h, endo-7-ethyl-2-[2-(5-fluoro-1H-indol-3-yl)ethyl]-2-azabicyclo[2.2.2]oct-5-ene] as the compound, how does the EC50 [1, 5] read?
**A.** 3.3 µM

**Q.** What about the fold induction at 10 µM [2] of the same compound?
**A.** 3.1 ± 0.2

**Q.** With `CCC1CC2C=CC1N(CCc1nc3ccccc3[nH]1)C2` (racemic) [Compound 12l, endo-2-[2-(1H-benzo[d]imidazol-2-yl)ethyl]-7-ethyl-2-azabicyclo[2.2.2]oct-5-ene] as the compound, how does the fold induction at 10 µM [2] read?
**A.** 1.5

**Q.** With `CCC1CC2CCC1N(CCc1c[nH]c3ccccc13)C2` (racemic) [Compound 13a, endo-2-[2-(1H-indol-3-yl)ethyl]-7-ethyl-2-azabicyclo [2.2.2]octane] as the compound, how does the fold induction at 10 µM [2] read?
**A.** 2

**Q.** Which fold induction at 10 µM [2] does the source give for `CCC1CC2CCC1N(CCc1c[nH]c3ccc(F)cc13)C2` (racemic) [Compound 13b, endo-7-ethyl-2-[2-(5-fluoro-1H-indol-3-yl)ethyl]-2-azabicyclo [2.2.2]octane] here?
**A.** 2

**Q.** With `C1=CC2CCC1CN2CCc1c[nH]c2ccccc12` (racemic) [Compound 18a, 2-[2-(1H-indol-3-yl)ethyl]-2-azabicyclo[2.2.2]oct-5-ene] as the compound, how does the fold induction at 10 µM [2] read?
**A.** 1.6

**Q.** With `C1=CC2CCC1CN2Cc1c[nH]c2ccccc12` (racemic) [Compound 18b, 2-[(1H-indol-3-yl)methyl]-2-azabicyclo[2.2.2]oct-5-ene] as the compound, how does the fold induction at 10 µM [2] read?
**A.** 1.6 ± 0.1

**Q.** For `CCOC(=O)C1CC2C=CC1N(CCc1c[nH]c3ccccc13)C2` (racemic) [Compound 21, 7-exo-ethoxycarbonyl-2-[2-(1H-indol-3-yl)ethyl]-2-azabicyclo[2.2.2]oct-5-ene], which fold induction at 10 µM [2] is on record?
**A.** 1

**Q.** With `CCOC(=O)C1CC2C=CC1N(CCc1c[nH]c3ccccc13)C2` (racemic) [Compound 22, 7-endo-ethoxycarbonyl-2-[2-(1H-indol-3-yl)ethyl]-2-azabicyclo[2.2.2]oct-5-ene] as the compound, how does the “Fold-Increase of GDNF Concentration” value [2] read?
**A.** 2.0 ± 0.0 fold

**Q.** Which “self-administration and reinstatement of alcohol intake” value (“self-administration and reinstatement” below) (alcohol intake [3]) does the source give for `CC[C@H]1C[C@H]2C[C@H]3c4[nH]c5ccc(O)cc5c4CCN(C2)[C@@H]13` [noribogaine] here?
**A.** reduce self-administration and reinstatement of alcohol intake

**Q.** And the “self-administration and reinstatement” value (alcohol intake [4])?
**A.** reduce self-administration and reinstatement of alcohol intake

**Q.** Which “self-administration and reinstatement” value (alcohol intake [3]) does the source give for ibogaine here?
**A.** reduce self-administration and reinstatement of alcohol intake

**Q.** And the “self-administration and reinstatement” value (alcohol intake [4])?
**A.** reduce self-administration and reinstatement of alcohol intake

From patent publication US9988377B2, “Small molecule inducers of GDNF as potential new therapeutics for neuropsychiatric disorders” (THE TRUSTEES OF COLUMBIA UNIVERSITY IN THE CITY OF NEW YORK, priority 2011, dated 2018)
